From BindingDB's records for patent US20250368634 (SchroDinger, 2025)

Biological target: T1, Son of sevenless homolog 1 (Homo sapiens, UniProt Q07889)
T1 sequence (Q07889 whole entry): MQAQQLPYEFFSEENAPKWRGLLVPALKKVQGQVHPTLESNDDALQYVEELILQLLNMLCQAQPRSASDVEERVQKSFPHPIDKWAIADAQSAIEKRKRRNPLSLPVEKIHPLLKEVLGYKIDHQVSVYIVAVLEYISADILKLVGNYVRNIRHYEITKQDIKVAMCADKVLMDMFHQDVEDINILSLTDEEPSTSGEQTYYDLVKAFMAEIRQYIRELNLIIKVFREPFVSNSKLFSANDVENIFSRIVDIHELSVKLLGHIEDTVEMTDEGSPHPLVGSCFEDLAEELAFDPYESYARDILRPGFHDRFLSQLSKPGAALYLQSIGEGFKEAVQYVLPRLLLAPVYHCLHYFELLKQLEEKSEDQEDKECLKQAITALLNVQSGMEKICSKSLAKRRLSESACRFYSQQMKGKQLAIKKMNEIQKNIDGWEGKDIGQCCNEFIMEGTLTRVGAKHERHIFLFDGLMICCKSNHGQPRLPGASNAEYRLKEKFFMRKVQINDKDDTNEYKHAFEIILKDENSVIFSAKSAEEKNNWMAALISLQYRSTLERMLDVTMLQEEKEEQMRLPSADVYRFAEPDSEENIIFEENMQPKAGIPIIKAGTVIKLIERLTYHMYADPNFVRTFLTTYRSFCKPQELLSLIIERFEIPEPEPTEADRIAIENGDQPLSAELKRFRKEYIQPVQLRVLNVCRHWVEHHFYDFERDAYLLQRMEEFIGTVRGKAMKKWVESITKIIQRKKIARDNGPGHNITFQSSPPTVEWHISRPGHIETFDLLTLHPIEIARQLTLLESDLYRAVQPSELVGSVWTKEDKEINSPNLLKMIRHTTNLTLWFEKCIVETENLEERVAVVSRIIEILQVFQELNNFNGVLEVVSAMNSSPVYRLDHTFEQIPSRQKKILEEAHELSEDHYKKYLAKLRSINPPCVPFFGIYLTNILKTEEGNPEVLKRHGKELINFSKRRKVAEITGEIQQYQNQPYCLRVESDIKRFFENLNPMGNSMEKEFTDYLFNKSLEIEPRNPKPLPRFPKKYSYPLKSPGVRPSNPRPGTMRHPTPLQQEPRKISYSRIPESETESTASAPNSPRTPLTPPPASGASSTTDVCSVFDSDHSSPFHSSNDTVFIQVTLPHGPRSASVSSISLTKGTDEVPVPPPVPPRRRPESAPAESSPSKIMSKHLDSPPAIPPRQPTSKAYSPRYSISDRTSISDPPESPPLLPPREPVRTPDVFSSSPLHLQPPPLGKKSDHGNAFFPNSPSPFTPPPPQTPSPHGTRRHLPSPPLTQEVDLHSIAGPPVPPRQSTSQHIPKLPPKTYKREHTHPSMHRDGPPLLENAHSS
Test: SOS1-KRas (G12C) FRET Assay
Method: Inhibition of the SOS1: KRAS interaction was measured using purified GST-tagged KRAS (res. 1-169, G12C, purified based on Hillig, et al., Proc Natl Acad Sci USA (2019); 116 (7): 2551-2560) and recombinant His10-SOS1 (res. 564-1049; purified based on Hillig, et al.). The final assay was performed at 20 uL with 0.5 nM SOS1 protein and 2.5 nM KRAS protein in a buffer of PBS, 0.1% BSA, 5 mM MgCl2, 0.0025% Igepal, 100 mM KF, 5 mM DTT in a white 384 square well OptiPlate (PerkinElmer, Cat. 6007290). A 2×KRAS working solution was prepared in an assay buffer containing 5 nM GST-KRAS G12C and 2 nM anti-GST-Eu (K) (Cisbio, Cat. 61GSTKLA) and pre-incubated for 15 minutes at 25° C. Compounds were serially diluted in 100% DMSO from 2 mM (positive control, compound I-13, PCT Publ. No. WO2018/115380) or 20 mM and then diluted 1:20 in assay buffer before incubation with a solution of SOS1 protein mixed 1:5 with anti-6His-XL665 FRET […] (Cisbio, Cat. 61HISXL) for 15 minutes at 25° C. before addition of 2×KRAS working solution. The final DMSO concentration is 0.5%. Plates were incubated at RT for 2 hrs before the FRET signal was measured using Envision at emission 665 nm and 615 nm.

Work on C[C@@H](NC(=O)c1cc(N2CCOCC2)c(F)cc1N[C@H]1[C@@H]2CN(C)C[C@@H]21)c1cccc(C(F)F)c1F [US20250368634, Example 55] yielded an IC50 of 19.8 nM.
